According to PubChem BioAssay (NCI):
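Cells were grown in 96-well plates and exposed to each compound for 48 hours at five concentrations; endpoints were interpolated linearly between bracketing concentrations, or set to the highest concentration if not reached. TGI: total growth inhibition.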

Tests used:
Test in all cases: NCI anticancer screen, dose series, 48 h
786-0 renal = system: 786-0 renal
A498 renal = system: A498 renal
A549 NSCLC = system: A549 NSCLC
ACHN renal = system: ACHN renal
BT-549 breast = system: BT-549 breast
CAKI-1 renal = system: CAKI-1 renal
CCRF-CEM leukemia = system: CCRF-CEM leukemia
COLO 205 colon = system: COLO 205 colon
DU-145 prostate = system: DU-145 prostate
EKVX NSCLC = system: EKVX NSCLC
HCC-2998 colon = system: HCC-2998 colon
HCT-116 colon = system: HCT-116 colon
HCT-15 colon = system: HCT-15 colon
HL-60(TB) leukemia = system: HL-60(TB) leukemia
HOP-62 NSCLC = system: HOP-62 NSCLC
HOP-92 NSCLC = system: HOP-92 NSCLC
HS 578T breast = system: HS 578T breast
HT29 colon = system: HT29 colon
IGROV1 ovarian = system: IGROV1 ovarian
K-562 leukemia = system: K-562 leukemia
KM12 colon = system: KM12 colon
LOX IMVI melanoma = system: LOX IMVI melanoma
M14 melanoma = system: M14 melanoma
MALME-3M melanoma = system: MALME-3M melanoma
MCF7 breast = system: MCF7 breast
MDA-MB-231 breast = system: MDA-MB-231 breast
MDA-MB-435 = system: MDA-MB-435
MDA-N = system: MDA-N
MOLT-4 leukemia = system: MOLT-4 leukemia
NCI-H226 lung = system: NCI-H226 lung
NCI-H23 lung = system: NCI-H23 lung
NCI-H460 lung = system: NCI-H460 lung
NCI-H522 lung = system: NCI-H522 lung
NCI/ADR-RES ovarian = system: NCI/ADR-RES ovarian
OVCAR-3 ovarian = system: OVCAR-3 ovarian
OVCAR-4 ovarian = system: OVCAR-4 ovarian
OVCAR-5 ovarian = system: OVCAR-5 ovarian
OVCAR-8 ovarian = system: OVCAR-8 ovarian
PC-3 prostate = system: PC-3 prostate
RPMI-8226 leukemia = system: RPMI-8226 leukemia
RXF 393 renal = system: RXF 393 renal
SF-268 CNS = system: SF-268 CNS
SF-295 CNS = system: SF-295 CNS
SF-539 CNS = system: SF-539 CNS
SK-MEL-2 melanoma = system: SK-MEL-2 melanoma
SK-MEL-28 melanoma = system: SK-MEL-28 melanoma
SK-MEL-5 melanoma = system: SK-MEL-5 melanoma
SK-OV-3 ovarian = system: SK-OV-3 ovarian
SN12C renal = system: SN12C renal
SNB-19 CNS = system: SNB-19 CNS
SR leukemia = system: SR leukemia
SW-620 colon = system: SW-620 colon
T-47D breast = system: T-47D breast
U251 CNS = system: U251 CNS
UACC-257 melanoma = system: UACC-257 melanoma
UACC-62 melanoma = system: UACC-62 melanoma
UO-31 renal = system: UO-31 renal
TK-10 renal = system: TK-10 renal

## N#Cc1c(N)nc2n[nH]c(N)c2c1-c1ccc(Cl)cc1
786-0 renal
  TGI: > 60.8 µM
A498 renal
  TGI: 3.14 µM
A549 NSCLC
  TGI: > 72.9 µM
ACHN renal
  TGI: 9.69 µM
BT-549 breast
  TGI: 12.7 µM
CAKI-1 renal
  TGI: 29.3 µM
CCRF-CEM leukemia
  TGI: > 100 µM
COLO 205 colon
  TGI: > 100 µM
DU-145 prostate
  TGI: > 71.8 µM
EKVX NSCLC
  TGI: 44 µM
HCC-2998 colon
  TGI: > 64.7 µM
HCT-116 colon
  TGI: > 100 µM
HCT-15 colon
  TGI: > 72.6 µM
HL-60(TB) leukemia
  TGI: > 100 µM
HOP-62 NSCLC
  TGI: 71.5 µM
HOP-92 NSCLC
  TGI: 6.14 µM
HS 578T breast
  TGI: 8.64 µM
HT29 colon
  TGI: > 58.6 µM
IGROV1 ovarian
  TGI: 7.39 µM
K-562 leukemia
  TGI: > 100 µM
KM12 colon
  TGI: > 100 µM
LOX IMVI melanoma
  TGI: 16.9 µM
M14 melanoma
  TGI: > 39.8 µM
MALME-3M melanoma
  TGI: 8.69 µM
MCF7 breast
  TGI: 19 µM
MDA-MB-231 breast
  TGI: 10.4 µM
MDA-MB-435
  TGI: > 74.4 µM
MDA-N
  TGI: > 100 µM
MOLT-4 leukemia
  TGI: > 100 µM
NCI-H226 lung
  TGI: > 100 µM
NCI-H23 lung
  TGI: 29.8 µM
NCI-H460 lung
  TGI: > 96.7 µM
NCI-H522 lung
  TGI: 9.11 µM
NCI/ADR-RES ovarian
  TGI: 61.6 µM
OVCAR-3 ovarian
  TGI: 18.2 µM
OVCAR-4 ovarian
  TGI: > 100 µM
OVCAR-5 ovarian
  TGI: > 100 µM
OVCAR-8 ovarian
  TGI: > 50.8 µM
PC-3 prostate
  TGI: 16.7 µM
RPMI-8226 leukemia
  TGI: > 100 µM
RXF 393 renal
  TGI: 7.26 µM
SF-268 CNS
  TGI: > 100 µM
SF-295 CNS
  TGI: 42.7 µM
SF-539 CNS
  TGI: 45 µM
SK-MEL-2 melanoma
  TGI: 6.57 µM
SK-MEL-28 melanoma
  TGI: > 100 µM
SK-MEL-5 melanoma
  TGI: > 81.1 µM
SK-OV-3 ovarian
  TGI: 7.33 µM
SN12C renal
  TGI: 51.6 µM
SNB-19 CNS
  TGI: > 59.9 µM
SR leukemia
  TGI: > 100 µM
SW-620 colon
  TGI: > 100 µM
T-47D breast
  TGI: 4.62 µM
U251 CNS
  TGI: > 55 µM
UACC-257 melanoma
  TGI: > 100 µM
UACC-62 melanoma
  TGI: 4.23 µM
UO-31 renal
  TGI: 19.9 µM

## CC(=O)c1c(C)n([O-])c2cc(Cl)c(Cl)cc2[n+]1=O
786-0 renal
  TGI: > 100 µM
A498 renal
  TGI: 70.4 µM
A549 NSCLC
  TGI: 56.2 µM
ACHN renal
  TGI: 67.7 µM
BT-549 breast
  TGI: > 100 µM
CAKI-1 renal
  TGI: 58.1 µM
CCRF-CEM leukemia
  TGI: 61.5 µM
COLO 205 colon
  TGI: 30.1 µM
DU-145 prostate
  TGI: > 100 µM
EKVX NSCLC
  TGI: > 100 µM
HCC-2998 colon
  TGI: 57.8 µM
HCT-116 colon
  TGI: > 100 µM
HCT-15 colon
  TGI: > 100 µM
HL-60(TB) leukemia
  TGI: 39.6 µM
HOP-62 NSCLC
  TGI: > 100 µM
HS 578T breast
  TGI: 74 µM
HT29 colon
  TGI: 90.9 µM
IGROV1 ovarian
  TGI: 24.4 µM
K-562 leukemia
  TGI: 95.4 µM
KM12 colon
  TGI: 33.5 µM
LOX IMVI melanoma
  TGI: 46.4 µM
M14 melanoma
  TGI: > 100 µM
MALME-3M melanoma
  TGI: 26.4 µM
MCF7 breast
  TGI: > 100 µM
MDA-MB-231 breast
  TGI: 62.7 µM
MDA-MB-435
  TGI: 69.7 µM
MDA-N
  TGI: > 100 µM
MOLT-4 leukemia
  TGI: > 100 µM
NCI-H23 lung
  TGI: > 100 µM
NCI-H460 lung
  TGI: 56 µM
NCI-H522 lung
  TGI: 27.9 µM
NCI/ADR-RES ovarian
  TGI: 75.1 µM
OVCAR-3 ovarian
  TGI: 88.5 µM
OVCAR-4 ovarian
  TGI: 63.8 µM
OVCAR-5 ovarian
  TGI: > 100 µM
OVCAR-8 ovarian
  TGI: 89.9 µM
PC-3 prostate
  TGI: > 100 µM
RPMI-8226 leukemia
  TGI: 25.4 µM
RXF 393 renal
  TGI: > 100 µM
SF-268 CNS
  TGI: > 100 µM
SF-295 CNS
  TGI: > 100 µM
SF-539 CNS
  TGI: 72.5 µM
SK-MEL-2 melanoma
  TGI: > 100 µM
SK-MEL-28 melanoma
  TGI: > 100 µM
SK-MEL-5 melanoma
  TGI: 26.4 µM
SK-OV-3 ovarian
  TGI: 54.4 µM
SN12C renal
  TGI: 86.2 µM
SNB-19 CNS
  TGI: > 100 µM
SR leukemia
  TGI: 62.2 µM
SW-620 colon
  TGI: > 100 µM
T-47D breast
  TGI: > 100 µM
TK-10 renal
  TGI: 71.3 µM
U251 CNS
  TGI: > 100 µM
UACC-257 melanoma
  TGI: 57.4 µM
UACC-62 melanoma
  TGI: 50 µM
UO-31 renal
  TGI: 32.9 µM
